Measured values from ChEMBL document CHEMBL5321248, “Syntheses and antitumor activities of neorautenol and shinpterocarpin analogs” (Bioorg Med Chem Lett, 2023).
pIC50: −log10 of the molar value.

Key:
[1] = tested on: MDA-MB-231; test: Antitumor activity against human MDA-MB-231 cells assessed as inhibition of cell growth by MTT assay; type: functional, cell-based
[2] = tested on: A549; test: Antitumor activity against human A549 cells assessed as inhibition of cell growth by MTT assay; type: functional, cell-based
[3] = tested on: NCI-H460; test: Antitumor activity against human NCI-H460 cells assessed as inhibition of cell growth by MTT assay; type: functional, cell-based
[4] = tested on: Hep 3B2; test: Antitumor activity against human Hep3B cells assessed as inhibition of cell growth by MTT assay; type: functional, cell-based
[5] = tested on: HCT-116; test: Antitumor activity against human HCT-116 cells assessed as inhibition of cell growth by MTT assay; type: functional, cell-based
[6] = tested on: NCI-H1299; test: Antitumor activity against human NCI-H1299 cells assessed as inhibition of cell growth by MTT assay; type: functional, cell-based
[7] = tested on: HT-22; test: Cytotoxicity against mouse HT-22 cells assessed as reduction in cell viability at 10 uM relative to control; type: toxicity, cell-based; settings: ht-22, 10 µM
[8] = Cytotoxicity against human RPE cells assessed as reduction in cell viability at 50 uM relative to control; type: toxicity, cell-based
[9] = Cytotoxicity against human RPE cells assessed as reduction in cell viability at 10 uM relative to control; type: toxicity, cell-based
[10] = tested on: HT-22; test: Cytotoxicity against mouse HT-22 cells assessed as reduction in cell viability at 50 uM relative to control; type: toxicity, cell-based; settings: ht-22, 50 µM

pIC50 [1]	pIC50 [2]	pIC50 [3]	pIC50 [5]	pIC50 [6]	SMILES	pIC50 [4]	Activity [7]	Activity [8]	Activity [9]	Activity [10]
< 5.00	< 5.00	< 5.00	< 5.00	< 5.00	CC1(C)C=Cc2c(ccc3c2OC[C@H]2c4ccc(NS(C)(=O)=O)cc4O[C@@H]32)O1	< 5.00	–	–	–	–
< 5.00	5.09	5.24	5.15	5.02	CN(C)CCOc1ccc2c(c1)O[C@H]1c3ccc4c(c3OC[C@@H]21)C=CC(C)(C)O4	< 5.00	> 70%	Non-Toxic	> 70%	Toxic
< 5.00	< 5.00	< 5.00	< 5.00	< 5.00	CC1(C)C=Cc2cc3c(cc2O1)OC[C@H]1c2ccc(OCCN4CCOCC4)cc2O[C@@H]31	< 5.00	–	–	–	–
< 5.00	< 5.00	< 5.00	< 5.00	< 5.00	CC1(C)C=Cc2cc3c(cc2O1)OC[C@H]1c2ccc(N)cc2O[C@@H]31	< 5.00	–	–	–	–
< 5.00	< 5.00	< 5.00	< 5.00	< 5.00	COc1ccc2c(c1)OC[C@H]1c3ccc(O)cc3O[C@@H]21	< 5.00	–	–	–	–
< 5.00	< 5.00	< 5.00	< 5.00	< 5.00	CC1(C)C=Cc2cc3c(cc2O1)OC[C@H]1c2ccc([N+](=O)[O-])cc2O[C@@H]31	< 5.00	–	–	–	–
< 5.00	< 5.00	< 5.00	< 5.00	< 5.00	CC1(C)C=Cc2c(ccc3c2OC[C@H]2c4ccccc4O[C@@H]32)O1	< 5.00	–	–	–	–
< 5.00	< 5.00	< 5.00	< 5.00	< 5.00	CC(=O)Nc1ccc2c(c1)O[C@H]1c3cc4c(cc3OC[C@@H]21)OC(C)(C)C=C4	< 5.00	–	–	–	–
< 5.00	< 5.00	< 5.00	< 5.00	< 5.00	CC1(C)C=Cc2cc3c(cc2O1)OC[C@H]1c2ccc(NS(C)(=O)=O)cc2O[C@@H]31	< 5.00	–	–	–	–
< 5.00	< 5.00	< 5.00	< 5.00	< 5.00	COCCOc1ccc2c(c1)O[C@H]1c3ccc4c(c3OC[C@@H]21)C=CC(C)(C)O4	< 5.00	–	–	–	–
< 5.00	< 5.00	< 5.00	< 5.00	< 5.00	CC1(C)C=Cc2cc3c(cc2O1)OC[C@H]1c2ccccc2O[C@@H]31	< 5.00	–	–	–	–
< 5.00	< 5.00	< 5.00	< 5.00	< 5.00	COc1ccc2c(c1)O[C@H]1c3cc4c(cc3OC[C@@H]21)OC(C)(C)C=C4	< 5.00	–	–	–	–
< 5.00	< 5.00	< 5.00	< 5.00	< 5.00	COc1ccc2c(c1)O[C@H]1c3ccc4c(c3OC[C@@H]21)C=CC(C)(C)O4	< 5.00	–	–	–	–
< 5.00	< 5.00	< 5.00	< 5.00	< 5.00	C#CC(C)(C)Oc1ccc2c(c1)OC[C@H]1c3ccc(O)cc3O[C@@H]21	< 5.00	–	–	–	–
< 5.00	< 5.00	< 5.00	< 5.00	< 5.00	CC1(C)C=Cc2c(ccc3c2OC[C@H]2c4ccc([N+](=O)[O-])cc4O[C@@H]32)O1	< 5.00	–	–	–	–
< 5.00	5.19	5.38	5.28	5.18	CN1CCN(CCOc2ccc3c(c2)O[C@H]2c4ccc5c(c4OC[C@@H]32)C=CC(C)(C)O5)CC1	< 5.00	> 70%	Non-Toxic	> 70%	Toxic
4.28	4.67	4.55	4.65	4.74	CC1(C)C=Cc2c(ccc3c2OC[C@H]2c4ccc(O)cc4O[C@@H]32)O1 [SHINPTEROCARPIN]	4.52	–	–	–	–
< 5.00	< 5.00	< 5.00	< 5.00	< 5.00	COCCOc1ccc2c(c1)O[C@H]1c3cc4c(cc3OC[C@@H]21)OC(C)(C)C=C4	< 5.00	–	–	–	–
5.17	5.17	5.37	5.36	5.08	CC1(C)C=Cc2cc3c(cc2O1)OC[C@H]1c2ccc(OCCN4CCNCC4)cc2O[C@@H]31	< 5.00	> 70%	Non-Toxic	> 70%	Toxic
< 5.00	< 5.00	< 5.00	< 5.00	< 5.00	CC1(C)C=Cc2c(ccc3c2OC[C@H]2c4ccc(N)cc4O[C@@H]32)O1	< 5.00	–	–	–	–
< 5.00	< 5.00	< 5.00	< 5.00	< 5.00	CC1(C)C=Cc2c(ccc3c2OC[C@H]2c4ccc(OCCN5CCOCC5)cc4O[C@@H]32)O1	< 5.00	–	–	–	–
< 5.00	< 5.00	< 5.00	< 5.00	< 5.00	CC1(C)C=Cc2c(ccc3c2OC[C@H]2c4ccc(OCCN5CCNCC5)cc4O[C@@H]32)O1	< 5.00	–	–	–	–
4.27	4.61	4.62	4.76	4.82	CC1(C)C=Cc2cc3c(cc2O1)OC[C@H]1c2ccc(O)cc2O[C@@H]31 [NEORAUTENOL]	4.55	–	–	–	–
< 5.00	< 5.00	< 5.00	< 5.00	< 5.00	CC(=O)Nc1ccc2c(c1)O[C@H]1c3ccc4c(c3OC[C@@H]21)C=CC(C)(C)O4	< 5.00	–	–	–	–
